How the values were obtained:
[1] = system: Green Peach Aphid (GPA) (Myrzus persicae) (MYZUPE); test: Bioassay on green peach aphid (GPA), foliar spray on cabbage seedlings; format: in vivo; details: Myzus persicae, 72 h, 200 ppm foliar spray, graded after three days, Abbott corrected % control, read-out: MYZUPE % Ctrl @ 200 ppm
Procedure: Certain molecules disclosed in this document were tested against GPA using procedures described in the following example. In the reporting of the results, “Table 3: GPA (MYZUPE) and sweetpotato whitefly-crawler (BEMITA) Rating Table” was used (See Table Section).
Cabbage seedlings grown in 3-inch pots, with 2-3 small (3-5 cm) true leaves, were used as test substrate. The seedlings were infested with 20-50 GPA (wingless adult and nymph stages) one day prior to chemical application. Four pots with individual seedlings were used for each treatment. Test compounds (2 mg) were dissolved in 2 mL of acetone/methanol (1:1) solvent, forming stock solutions of 1000 ppm test compound. The stock solutions were diluted 5× with 0.025% Tween 20 in H2O to obtain the solution at 200 ppm test compound. A hand-held aspirator-type sprayer was used for spraying a solution to both sides of […] leaves until runoff. Reference plants (solvent check) were sprayed with the diluent only containing 20% by volume of acetone/methanol (1:1) solvent. Treated plants were held in a holding room for three days at approximately 25° C. and ambient relative humidity (RH) prior to grading. Evaluation was conducted by counting the number of live aphids per plant under a microscope. Percent Control was measured by using Abbott's correction formula (W. S. Abbott. “A Method of Computing the Effectiveness of an Insecticide” J. Econ. Entomol. 18 (1925), pp. 265-267) as follows. Corrected % Control=100*(X−Y)/X • where • X=No. of live aphids on solvent check plants and • Y=No. of live aphids on treated plants
Biological Data for GPA (MYZUPE) and sweetpotato whitefly-crawler (BEMITA)” (See Table Section).

[2] = system: Sweetpotato whitefly-crawler (Bemisia tabaci) (BEMITA); test: Insecticidal test for sweetpotato whitefly-crawler in foliar spray assay on cotton plants; format: in vivo; details: 200 ppm foliar spray, graded after 8-9 days, Abbott corrected % control, read-out: BEMITA % Ctrl @ 200 ppm
Procedure: Cotton plants grown in 3-inch pots, with 1 small (3-5 cm) true leaf, were used as test substrate. The plants were placed in a room with whitefly adults. Adults were allowed to deposit eggs for 2-3 days. After a 2-3 day egg-laying period, plants were taken from the adult whitefly room. Adults were blown off leaves using a hand-held Devilbiss sprayer (23 psi). Plants with egg infestation (100-300 eggs per plant) were placed in a holding room for 5-6 days at 82° F. and 50% RH for egg hatch and crawler stage to develop. Four cotton plants were used for each treatment. Compounds (2 mg) were dissolved in 1 mL of acetone solvent, forming stock solutions of 2000 ppm. The stock solutions were diluted 10× with 0.025% Tween 20 in H2O to obtain a test solution at 200 ppm. A hand-held Devilbiss sprayer was used for spraying a solution to both sides of cotton leaf until runoff. Reference plants (solvent check) were sprayed with the diluent only. Treated plants were held in a holding room for 8-9 days at approximately 82° F. and 50% RH prior to grading. Evaluation was conducted by counting the number of live nymphs per plant under a microscope. Insecticidal activity was measured by using Abbott's correction formula and presented in “Table 4. Biological Data for GPA (MYZUPE) and sweetpotato whitefly-crawler (BEMITA)” (see column “BEMITA”): Corrected % Control=100*(X−Y)/X • where X=No. of live nymphs on solvent check plants • Y=No. of live nymphs on treated plants Pesticidally Acceptable Acid Addition Salts, Salt Derivatives, Solvates, Ester Derivatives, Polymorphs, Isotopes and Radionuclides

Row | Structure (SMILES) | melting point [°C] | pest or weed control at 200 ppm [1] [%] | pest or weed control at 200 ppm [2] [%]
1 | CSCC(C)(C)C(=O)N(C)c1cc(-c2cccnc2)nn1C [Compound 3] | 190 to 193 | – | –
2 | Cc1nn(-c2cncc(F)c2)cc1NC(=O)OC(C)(C)C [Compound 111, tert-butyl 1-(5-fluoropyridin-3-yl)-3-methyl-1H-pyrazol-4-ylcarbamate] | 131.5 to 133 | – | –
3 | CCN(C(=O)CC(OC)(C(F)(F)F)C(F)(F)F)c1cn(-c2cccnc2)nc1C [Compound 276, N-ethyl-4,4,4-trifluoro-3-methoxy-N-(3-methyl-1-(pyridin-3-yl)-1H-pyrazol-4-yl)-3-(trifluoromethyl)butanamide] | 83 to 86 | – | –
4 | CC(C)(C)OC(=O)Nc1cn(-c2cncc(F)c2)nc1C1CC1 [Compound 434, tert-butyl (3-cyclopropyl-1-(5-fluoropyridin-3-yl)-1H-pyrazol-4-yl)carbamate] | 156.5 to 158 | – | –
5 | CC(C)C(=O)Nc1cn(-c2cncc(F)c2)nc1CO [Compound 435, N-(1-(5-fluoropyridin-3-yl)-3-(hydroxymethyl)-1H-pyrazol-4-yl)isobutyramide] | 144 to 146 | – | –
6 | CC(C)C(=O)Nc1cn(-c2cncc(F)c2)nc1C=O [Compound 560, N-(1-(5-fluoropyridin-3-yl)-3-formyl-1H-pyrazol-4-yl)isobutyramide] | 140 to 142 | – | –
7 | CC(C)C(=O)Nc1cn(-c2cncc(F)c2)nc1CCl [Compound 561, N-(3-(chloromethyl)-1-(5-fluoropyridin-3-yl)-1H-pyrazol-4-yl)isobutyramide] | 172 to 177 | – | –
8 | C#CCN(C(=O)OC(C)(C)C)c1cn(-c2cccnc2)nc1C [Compound 596] | 73 to 75 | 80 to 100 | 80 to 100
9 | C#CCN(C(=O)CCC(F)(F)F)c1cn(-c2cccnc2)nc1C [Compound 597] | – | 80 to 100 | 0 to 80
10 | C#CCN(C(=O)CCSC)c1cn(-c2cccnc2)nc1C [Compound 598] | – | 80 to 100 | 0 to 80
11 | C#CCN(C(=O)C(C)CSC)c1cn(-c2cccnc2)nc1C (stereo not drawn) [Compound 599] | – | 80 to 100 | 0 to 80
12 | C#CCN(C(=O)C(C)C)c1cn(-c2cccnc2)nc1C [Compound 600] | 89 to 90 | 80 to 100 | 0 to 80
13 | C#CCN(C(=O)OC(C)(C)C)c1cn(-c2cncc(F)c2)nc1C [Compound 601, tert-butyl 1-(5-fluoropyridin-3-yl)-3-methyl-1H-pyrazol-4-yl(prop-2-ynyl)carbamate] | 81 to 82 | 80 to 100 | 80 to 100
14 | C#CCN(C(=O)C(C)CSC)c1cn(-c2cncc(F)c2)nc1C (stereo not drawn) [Compound 602] | – | 80 to 100 | 80 to 100
15 | C#CCN(C(=O)C(C)C)c1cn(-c2cncc(F)c2)nc1C [Compound 603] | 99 to 100 | 80 to 100 | 80 to 100
16 | C#CCN(C(=O)CCC(F)(F)F)c1cn(-c2cncc(F)c2)nc1C [Compound 604] | – | 80 to 100 | 80 to 100
17 | C#CCN(C(=O)CCSC)c1cn(-c2cncc(F)c2)nc1C [Compound 605, N-(1-(5-fluoropyridin-3-yl)-3-methyl-1H-pyrazol-4-yl)-3-(methylthio)-N-(prop-2-ynyl)propanamide] | – | 80 to 100 | 80 to 100
18 | C#CCN(C(=O)OC(C)(C)C)c1cn(-c2cccnc2)nc1Cl [Compound 606, tert-butyl (3-chloro-1-(pyridin-3-yl)-1H-pyrazol-4-yl)(prop-2-yn-1-yl)carbamate] | – | 80 to 100 | 80 to 100

Row | Structure (SMILES) | melting point [°C] | pest or weed control at 200 ppm [1] [%] | pest or weed control at 200 ppm [2] [%]
19 | C#CCN(C(=O)CCSC)c1cn(-c2cccnc2)nc1Cl [Compound 607] | – | 80 to 100 | 80 to 100
20 | C#CCN(C(=O)C(C)CSC)c1cn(-c2cccnc2)nc1Cl (stereo not drawn) [Compound 608] | – | 80 to 100 | 80 to 100
21 | C#CCN(C(=O)CCC(F)(F)F)c1cn(-c2cccnc2)nc1Cl [Compound 609] | – | 80 to 100 | 80 to 100
22 | C#CCN(C(=O)C(C)C)c1cn(-c2cccnc2)nc1Cl [Compound 610] | 98 to 99 | 80 to 100 | 80 to 100
23 | C#CCN(C(=O)C(C)SC)c1cn(-c2cccnc2)nc1Cl (stereo not drawn) [Compound 611, N-(3-chloro-1-(pyridin-3-yl)-1H-pyrazol-4-yl)-2-(methylthio)-N-(prop-2-yn-1-yl)propanamide] | – | 80 to 100 | 80 to 100
24 | C#CCN(C(=O)CSC)c1cn(-c2cccnc2)nc1Cl [Compound 612] | 65 to 68 | 80 to 100 | 80 to 100
25 | C#CCN(C(=O)CC(SC)C(F)(F)F)c1cn(-c2cccnc2)nc1Cl (stereo not drawn) [Compound 613, N-(3-chloro-1-(pyridin-3-yl)-1H-pyrazol-4-yl)-4,4,4-trifluoro-3-(methylthio)-N-(prop-2-yn-1-yl)butanamide] | – | 80 to 100 | 80 to 100
26 | C#CCN(C(=O)CCC(C)(F)F)c1cn(-c2cccnc2)nc1Cl [Compound 614] | – | 80 to 100 | 80 to 100
27 | C#CCN(C(=O)CCC(F)(F)C(F)(F)F)c1cn(-c2cccnc2)nc1Cl [Compound 615] | – | 0 to 80 | 80 to 100
28 | C#CCN(C(=O)CC(SC)C1CC1)c1cn(-c2cccnc2)nc1Cl (stereo not drawn) [Compound 619] | 109 to 112 | 80 to 100 | 80 to 100
29 | C#CCN(C(=O)C[S+](C)[O-])c1cn(-c2cccnc2)nc1Cl (stereo not drawn) [Compound 620] | – | 80 to 100 | 80 to 100
30 | C#CCN(C(=O)CS(C)(=O)=O)c1cn(-c2cccnc2)nc1Cl [Compound 621] | – | 80 to 100 | 80 to 100
31 | C#CCN(C(=O)C(SC)C(=O)CSC)c1cn(-c2cccnc2)nc1Cl (stereo not drawn) [Compound 622] | – | 80 to 100 | 80 to 100
32 | C#CCN(C(=O)CN(C)S(C)(=O)=O)c1cn(-c2cccnc2)nc1Cl [Compound 623, N-(3-chloro-1-(pyridin-3-yl)-1H-pyrazol-4-yl)-2-(N-methylmethylsulfonamido)-N-(prop-2-yn-1-yl)acetamide] | – | 80 to 100 | 80 to 100
33 | C#CCN(C(=O)CCSC(c1ccccc1)(c1ccccc1)c1ccccc1)c1cn(-c2cccnc2)nc1Cl [Compound 624] | 68 to 70 | – | –
34 | C#CCN(C(=O)CCSCCC(F)(F)F)c1cn(-c2cccnc2)nc1Cl [Compound 626] | – | 80 to 100 | 80 to 100
35 | C#CCN(C(=O)CCSCCC(F)(F)F)c1cn(-c2cccnc2)nc1C [Compound 627, N-(3-methyl-1-(pyridin-3-yl)-1H-pyrazol-4-yl)-N-(prop-2-yn-1-yl)-3-((3,3,3-trifluoropropyl)thio)propanamide] | – | 80 to 100 | 80 to 100
